According to the supplement of paper PMC11061612:

What was measured:
Carboplatin = compound: C1CC(C1)(C(=O)[O-])C(=O)[O-].N.N.[Pt+2] [Carboplatin]; settings: max 10 µM
Summary of the method: (§1)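 Cancer cell lines in 1536-well plates (7.5 μl DMEM/F12 or RPMI, 10% FBS) were held 24 hours at 37°C and 5% CO2 and then dosed for 72 hours at a final DMSO of typically 0.2%. Viability was taken from CellTiter-Glo 2.0 luminescence, scaled between blank-well and DMSO-well means. Curves were fitted as two-parameter logistic models with a non-linear mixed effects model, from which the single-agent IC50 was taken.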

AZD5363 = compound: C1CN(CCC1(C(=O)N[C@@H](CCO)C2=CC=C(C=C2)Cl)N)C3=NC=NC4=C3C=CN4 [AZD5363]; settings: max 10 µM
Summary of the method: as §1

AZD1775 = compound: C=CCn1c(=O)c2cnc(Nc3ccc(N4CCN(C)CC4)cc3)nc2n1-c1cccc(C(C)(C)O)n1 [AZD1775]; settings: max 3 µM
Summary of the method: as §1

Trametinib = compound: CC(=O)Nc1cccc(-n2c(=O)n(C3CC3)c(=O)c3c(Nc4ccc(I)cc4F)n(C)c(=O)c(C)c32)c1 [Trametinib]; settings: max 1 µM
Summary of the method: as §1

Paclitaxel = compound: CC(=O)O[C@H]1C(=O)[C@@]2(C)[C@H]([C@H](OC(=O)c3ccccc3)[C@]3(O)C[C@H](OC(=O)[C@H](O)[C@@H](NC(=O)c4ccccc4)c4ccccc4)C(C)=C1C3(C)C)[C@]1(OC(C)=O)CO[C@@H]1C[C@@H]2O [Paclitaxel]; settings: max 3 µM
Summary of the method: as §1

Palbociclib = compound: CC(=O)c1c(C)c2cnc(Nc3ccc(N4CCNCC4)cn3)nc2n(C2CCCC2)c1=O [Palbociclib]; settings: max 10 µM
Summary of the method: as §1

AZD1390 = compound: CC(C)n1c(=O)n(C)c2cnc3cc(F)c(-c4ccc(OCCCN5CCCCC5)nc4)cc3c21 [AZD1390]; settings: max 0.3 µM
Summary of the method: as §1

Venetoclax = compound: CC1(C)CCC(CN2CCN(c3ccc(C(=O)NS(=O)(=O)c4ccc(NCC5CCOCC5)c([N+](=O)[O-])c4)c(Oc4cnc5[nH]ccc5c4)c3)CC2)=C(c2ccc(Cl)cc2)C1 [Venetoclax]; settings: max 1 µM
Summary of the method: as §1

Dasatinib = compound: CC1=C(C(=CC=C1)Cl)NC(=O)C2=CN=C(S2)NC3=CC(=NC(=N3)C)N4CCN(CC4)CCO [Dasatinib]; settings: max 2 µM
Summary of the method: as §1

SG3199 = compound: CC1=CN2[C@@H](C1)C=NC3=CC(=C(C=C3C2=O)OC)OCCCCCOC4=C(C=C5C(=C4)N=C[C@@H]6CC(=CN6C5=O)C)OC [SG3199]; settings: max 0.001 µM
Summary of the method: as §1

AZD2811 = compound: CCN(CCO)CCCOc1ccc2c(Nc3cc(CC(=O)Nc4cccc(F)c4)[nH]n3)ncnc2c1 [AZD2811]; settings: max 1 µM
Summary of the method: as §1

SN-38 = compound: CCc1c2c(nc3ccc(O)cc13)-c1cc3c(c(=O)n1C2)COC(=O)[C@]3(O)CC [SN-38]; settings: max 0.3 µM
Summary of the method: as §1

AZD0156 = compound: CN(C)CCCOc1ccc(-c2ccc3ncc4c(c3c2)n(C2CCOCC2)c(=O)n4C)cn1 [AZD0156]; settings: max 3 µM
Summary of the method: as §1

AZD4320 = compound: CN(CC[C@H](CSC1=CC=CC=C1)NC2=C(C=C(C=C2)S(=O)(=O)NC(=O)C3=CC=C(C=C3)N4CCC(CC4)[C@H](C5=CC=CC=C5C6=CC=C(C=C6)Cl)O)S(=O)(=O)C(F)(F)F)CCO [AZD4320]; settings: max 1 µM
Summary of the method: as §1

Alisertib = compound: COc1cc(Nc2ncc3c(n2)-c2ccc(Cl)cc2C(c2c(F)cccc2OC)=NC3)ccc1C(=O)O [Alisertib]; settings: max 10 µM
Summary of the method: as §1

Etoposide = compound: COc1cc([C@@H]2c3cc4c(cc3[C@@H](O[C@@H]3O[C@@H]5CO[C@@H](C)O[C@H]5[C@H](O)[C@H]3O)[C@H]3COC(=O)[C@H]23)OCO4)cc(OC)c1O [Etoposide]; settings: max 10 µM
Summary of the method: as §1

Gefitinib = compound: COc1cc2ncnc(Nc3ccc(F)c(Cl)c3)c2cc1OCCCN1CCOCC1 [Gefitinib]; settings: max 10 µM
Summary of the method: as §1

Prexasertib = compound: COc1cccc(OCCCN)c1-c1cc(Nc2cnc(C#N)cn2)n[nH]1 [Prexasertib]; settings: max 1 µM
Summary of the method: as §1

Doxorubicin = compound: COc1cccc2c1C(=O)c1c(O)c3c(c(O)c1C2=O)C[C@@](O)(C(=O)CO)C[C@@H]3O[C@H]1C[C@H](N)[C@H](O)[C@H](C)O1 [Doxorubicin]; settings: max 1 µM
Summary of the method: as §1

AZD5153 = compound: COc1nnc2ccc(N3CCC(c4ccc(OCCN5CCN(C)C(=O)[C@H]5C)cc4)CC3)nn12 [AZD5153]; settings: max 1 µM
Summary of the method: as §1

Lapatinib = compound: CS(=O)(=O)CCNCc1ccc(-c2ccc3ncnc(Nc4ccc(OCc5cccc(F)c5)c(Cl)c4)c3c2)o1 [Lapatinib]; settings: max 10 µM
Summary of the method: as §1

AZD8186 = compound: C[C@@H](Nc1cc(F)cc(F)c1)c1cc(C(=O)N(C)C)cc2c(=O)cc(N3CCOCC3)oc12 [AZD8186]; settings: max 10 µM
Summary of the method: as §1

Crizotinib = compound: C[C@@H](Oc1cc(-c2cnn(C3CCNCC3)c2)cnc1N)c1c(Cl)ccc(F)c1Cl [Crizotinib]; settings: max 10 µM
Summary of the method: as §1

Savolitinib = compound: C[C@@H](c1ccc2nccn2c1)n1nnc2ncc(-c3cnn(C)c3)nc21 [Savolitinib]; settings: max 1 µM
Summary of the method: as §1

AZD6738 = compound: C[C@@H]1COCCN1C2=NC(=NC(=C2)C3(CC3)[S@](=N)(=O)C)C4=C5C=CNC5=NC=C4 [AZD6738]; settings: max 10 µM
Summary of the method: as §1

AZD5991 = compound: Cc1c2c(nn1C)CSCc1cc(n(C)n1)CSc1cc(c3ccccc3c1)OCCCc1c(C(=O)O)n(C)c3c-2c(Cl)ccc13 [AZD5991]; settings: max 1 µM
Summary of the method: as §1

AZD7648 = compound: Cc1cc2ncnn2cc1Nc1ncc2c(n1)n(C1CCOCC1)c(=O)n2C [AZD7648]; settings: max 10 µM
Summary of the method: as §1

Taselisib = compound: Cc1nc(-c2cn3c(n2)-c2ccc(-c4cnn(C(C)(C)C(N)=O)c4)cc2OCC3)n(C(C)C)n1 [Taselisib]; settings: max 10 µM
Summary of the method: as §1

Selumetinib = compound: Cn1cnc2c(F)c(Nc3ccc(Br)cc3Cl)c(C(=O)NOCCO)cc21 [Selumetinib]; settings: max 10 µM
Summary of the method: as §1

SRA737 = compound: N#Cc1cnc(Nc2cc(NC[C@H]3CNCCO3)c(C(F)(F)F)cn2)cn1 [SRA737]; settings: max 10 µM
Summary of the method: as §1

MK-2206 = compound: NC1(c2ccc(-c3nc4ccn5c(=O)[nH]nc5c4cc3-c3ccccc3)cc2)CCC1 [MK-2206]; settings: max 10 µM
Summary of the method: as §1

Gemcitabine = compound: Nc1ccn([C@@H]2O[C@H](CO)[C@@H](O)C2(F)F)c(=O)n1 [Gemcitabine]; settings: max 0.3 µM
Summary of the method: as §1

[1] = compound: O=C(Nc1ccc2[nH]nc(-c3ccncc3)c2c1)[C@@H]1CCN(CC(=O)N2CCN(c3ccc(-c4ncccn4)cc3)CC2)C1; settings: max 5 µM
Summary of the method: as §1

Olaparib = compound: O=C(c1cc(Cc2n[nH]c(=O)c3ccccc23)ccc1F)N1CCN(C(=O)C2CC2)CC1 [Olaparib]; settings: max 10 µM
Summary of the method: as §1

5-Fluorouracil = compound: O=c1[nH]cc(F)c(=O)[nH]1 [5-Fluorouracil]; settings: max 20 µM
Summary of the method: as §1

Cell Line | IC50, cell viability 72 h (Carboplatin) [nM] | IC50, cell viability 72 h (AZD5363) [nM] | IC50, cell viability 72 h (AZD1775) [nM] | IC50, cell viability 72 h (Trametinib) [nM] | IC50, cell viability 72 h (Paclitaxel) [nM] | IC50, cell viability 72 h (Palbociclib) [nM] | IC50, cell viability 72 h (AZD1390) [nM] | IC50, cell viability 72 h (Venetoclax) [nM] | IC50, cell viability 72 h (Dasatinib) [nM] | IC50, cell viability 72 h (SG3199) [nM] | IC50, cell viability 72 h (AZD2811) [nM] | IC50, cell viability 72 h (SN-38) [nM] | IC50, cell viability 72 h (AZD0156) [nM] | IC50, cell viability 72 h (AZD4320) [nM] | IC50, cell viability 72 h (Alisertib) [nM] | IC50, cell viability 72 h (Etoposide) [nM] | IC50, cell viability 72 h (Gefitinib) [nM] | IC50, cell viability 72 h (Prexasertib) [nM] | IC50, cell viability 72 h (Doxorubicin) [nM] | IC50, cell viability 72 h (AZD5153) [nM] | IC50, cell viability 72 h (Lapatinib) [nM] | IC50, cell viability 72 h (AZD8186) [nM] | IC50, cell viability 72 h (Crizotinib) [nM] | IC50, cell viability 72 h (Savolitinib) [nM] | IC50, cell viability 72 h (AZD6738) [nM] | IC50, cell viability 72 h (AZD5991) [nM] | IC50, cell viability 72 h (AZD7648) [nM] | IC50, cell viability 72 h (Taselisib) [nM] | IC50, cell viability 72 h (Selumetinib) [nM] | IC50, cell viability 72 h (SRA737) [nM] | IC50, cell viability 72 h (MK-2206) [nM] | IC50, cell viability 72 h (Gemcitabine) [nM] | IC50, cell viability 72 h [1] [nM] | IC50, cell viability 72 h (Olaparib) [nM] | IC50, cell viability 72 h (5-Fluorouracil) [nM]
NCI-H2087 (Lung Adenocarcinoma) | > 10000 | > 10000 | > 3000 | 350 | 225 | > 10000 | > 300 | > 1000 | > 2000 | > 1 | > 1000 | 18.8 | > 3000 | > 1000 | > 10000 | > 10000 | > 10000 | 96.2 | > 1000 | > 1000 | > 10000 | > 10000 | > 10000 | > 1000 | > 10000 | > 1000 | > 10000 | > 10000 | 6120 | > 10000 | > 10000 | 255 | 2200 | > 10000 | > 20000
HCC70 (Breast Carcinoma) | > 10000 | 2000 | 1000 | > 1000 | 143 | > 10000 | > 300 | > 1000 | > 2000 | > 1 | 224 | > 300 | > 3000 | > 1000 | > 10000 | > 10000 | > 10000 | 29.7 | > 1000 | > 1000 | > 10000 | 2020 | > 10000 | > 1000 | 3000 | 201 | > 10000 | 4260 | > 10000 | 5460 | 1920 | > 300 | > 5000 | > 10000 | > 20000
A2780 (Ovarian Carcinoma) | > 10000 | 1830 | 813 | 39.1 | 4.38 | 1160 | > 300 | > 1000 | > 2000 | > 1 | 370 | 11.3 | > 3000 | > 1000 | 386 | 582 | > 10000 | 334 | 48.3 | 73.7 | > 10000 | 1380 | 2190 | > 1000 | 3650 | 964 | 9290 | 117 | 3530 | > 10000 | 1610 | 8.45 | 243 | 9950 | 9030
NCI-H1651 (Lung Adenocarcinoma) | > 10000 | > 10000 | 779 | > 1000 | 21.7 | > 10000 | > 300 | > 1000 | > 2000 | > 1 | > 1000 | 22.1 | > 3000 | > 1000 | > 10000 | 6010 | > 10000 | 83.1 | 788 | > 1000 | > 10000 | > 10000 | > 10000 | > 1000 | > 10000 | > 1000 | > 10000 | > 10000 | > 10000 | > 10000 | > 10000 | > 300 | > 5000 | > 10000 | > 20000
LU-165 (Small Cell Lung Carcinoma) | > 10000 | > 10000 | 2940 | > 1000 | > 3000 | > 10000 | > 300 | > 1000 | > 2000 | > 1 | > 1000 | > 300 | > 3000 | > 1000 | > 10000 | > 10000 | > 10000 | 220 | > 1000 | > 1000 | > 10000 | > 10000 | > 10000 | > 1000 | > 10000 | > 1000 | > 10000 | > 10000 | > 10000 | > 10000 | > 10000 | > 300 | > 5000 | > 10000 | > 20000
